Laboratory results taken from patent US20190070128A1, “USE OF CANNABIDIVARIN IN THE TREATMENT OF AUTISM SPECTRUM DISORDER, ASSOCIATED DISORDERS AND SCHIZOPHRENIA” (GW Research Limited, priority 2016, published 2019).

Key:
PCP-treated rats [1] = conditions: rat, in vivo; cited from earlier work
PCP-treated rats [2] = test: novel object recognition test in sub-chronic PCP treated rats; type: in vivo, rat; conditions: PCP rats; CBDV 2, 10 or 20 mg/kg i.p., risperidone 0.1 mg/kg i.p., 60 min prior to testing
Experimental: (§1) Female hooded-Lister rats were used for this experiment. Rats were housed in groups of 5 under standard laboratory conditions under a 12 hr light: dark cycle, lights on at 0700 hr. Testing was carried out in the light phase.
(§2) Rats were randomly assigned to two treatment groups and treated with vehicle, n=20 (distilled water, i.p.) or Phencyclidine hydrochloride (PCP), n=100 (2 mg/kg, i.p. twice daily for 7-days). PCP was dissolved in distilled water. This was followed by a 7-day wash out period before the rats were tested following acute treatment with CBDV, risperidone or vehicle.
(§3) Risperidone (0.1 mg/kg) was dissolved in a minimum volume of acetic acid, made up to volume with distilled water and pH adjusted to 6 with 0.1M NaOH and administered via the i.p. route in a volume of 1 ml/kg, 60 min prior to testing.
(§4) CBDV at 2, 10 or 20 mg/kg was dissolved in 2:1:17 (Ethanol:Cremofor:Saline 0.9%) and administered via the i.p. route in a volume of 5 ml/kg, 60 min prior to testing.
Rats were allowed to habituate to the empty test box and the behavioural test room environment for 1 h on day 1. Prior to behavioural testing on day 2 rats are given a further 3 min habituation.
Following the 3 min habituation period, the rats are given two 3 min trials (T1 and T2) which are separated by a 1 min inter-trial interval in the home cage during which the objects are changed. Behaviour in all trials was recorded on video for subsequent blind scoring.
In this trial, the animals are allowed to explore two identical objects (A1 and A2) for 3 min.
In this trial, the animals explore a familiar object (A) from T1 and a novel object (B) for 3 min. The familiar object presented during T2 is a duplicate of the object presented in T1 in order to avoid any olfactory trails.
The object exploration is defined by animals licking, sniffing or touching the object with the forepaws whilst sniffing, but not leaning against, turning around, standing or sitting on the object. The exploration time (s) of each object (A, B, familiar and novel) in each trial are recorded using two stopwatches and the following factors are calculated: • Total exploration time of both objects in the acquisition trial (s). • Total exploration time of both objects in the retention trial (s). • Habituation of exploratory activity includes the exploration time, as measured by the number of lines crossed, for both the trials. • Discrimination index (DI), which is calculated as shown below: […]

PCP-treated rats [3] = test: social interaction test in sub-chronic PCP treated rats; type: in vivo, rat
Experimental: as §1, §2, §3, §4
The social interaction test is performed in an open-field comprising a square box made of Plexiglas (52×52×31 cm) placed 27 cm above the floor on a moveable trolley. The floor of the box is white with black gridlines forming 9 identical squares on it. All other walls are black. A video camera connected to a video recorder and monitor is positioned above the box. The object used for the test consists of a heavy structure made of metal that cannot be displaced by the animals.
The rats were habituated to the test environment and arena prior to the test day. Habituation consists of placing all rats from one cage together in the empty test arena for one hour for three days including the day before the test day.
Pairs of rats, weight matched (15-20 g) and unfamiliar to each other, receiving either no treatment (n=70 “conspecific” rats) or different treatments (PCP and Vehicle; n=10 “tested” rats or PCP+Drug; n=50 “tested” rats) were placed in the test arena together for 10 min and behaviour assessed as described below.
An inanimate object such as an unopened drinks can is also placed in the centre of the arena to measure any differences in interaction of the test animal with an unfamiliar animal as opposed to an unfamiliar object. After each 10 minute trial, the object and arena are cleaned with 10% alcohol in an attempt to remove traces of any olfactory cues. All testing is carried out under standard room illumination levels (70 cd/m2).
Behaviour in both trials was recorded on video for subsequent blind scoring. A behavioural scoring software program (Hindsight, Scientific programming services) is used to score the following parameters: • Investigative sniffing behaviour: sniffing the conspecific's snout or parts of the body including the anogenital region; • Following: rat moves after the conspecific i.e. a vehicle treated rat of the same species, around the arena; • Avoidances: actively turning away when approached by the conspecific animal; • Investigation of object: exploration of object placed in centre of the arena; and • Locomotor activity is recorded by counting the total number of sectors (i.e. lines) crossed by the test rat.

For `Cc1nc2n(c(=O)c1CCN1CCC(c3noc4cc(F)ccc34)CC1)CCCC2` [risperidone, reference compound], the “PCP-induced deficit in the novel object recognition test” value (PCP-treated rats [1]) is listed as “attenuate”, the “preference between two identical objects, Trial 1 (acquisition)” value (PCP-treated rats [2]) is listed as “no real preference” and the “PCP effects on social interaction (sniffing, following, avoiding)” value (PCP-treated rats [3]) is listed as “reverse these effects in a statistically significant manner”. The “time spent following the other rat” value (PCP-treated rats [3]; risperidone 0.1 mg/kg, time increased over PCP alone group) was “not seen to be significant”.
